Source: patent US8791264B2 (Purdue Pharma L.P., priority 2006, dated 2014)

Assays:
[1] = target: T1, N-type calcium channel (NTCC) (Homo sapiens, UniProt Q00975); assay: FLIPR calcium mobilization assay for N-type calcium channel; format: cell-based; conditions: calcium mobilization in vitro assay; differentiated IMR32 cells
T1 construct: host or cells: IMR32 cells differentiated with dibutyryl cAMP and bromodeoxyuridine
Summary of the method: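 Differentiated IMR32 cells (8 days, dibutyryl cAMP and BrdU) loaded with 3 μM Fluo-4 during 90 mM KCl pre-stimulation, with compound at about 846 pM to 17 μM plus 5 μM nitrendipine. After washes in compound, FLIPR read basal fluorescence 315 s, then 45 s after KCl addition (final 90 mM).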

[2] = target: T2, recombinant rat L-type calcium channel (LTCC) subunits (α1c, α2δ, and β1) (Rattus norvegicus, UniProt P22002); assay: FLIPR calcium mobilization assay for L-type calcium channel; format: cell-based; conditions: calcium mobilization in vitro assay; HEK293 cells expressing rat LTCC
T2 construct: expressed in transfected cells
Summary of the method: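 HEK293 cells stably expressing rat LTCC (α1c, α2δ, β1), Fluo-4 loaded in pH 7.4 buffer with 5 mM CaCl2. Compound (about 846 pM to 17 μM final) applied 5 minutes before depolarization with 90 mM KCl final; FLIPR fluorescence recorded throughout.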

T1 sequence (Q00975 whole entry): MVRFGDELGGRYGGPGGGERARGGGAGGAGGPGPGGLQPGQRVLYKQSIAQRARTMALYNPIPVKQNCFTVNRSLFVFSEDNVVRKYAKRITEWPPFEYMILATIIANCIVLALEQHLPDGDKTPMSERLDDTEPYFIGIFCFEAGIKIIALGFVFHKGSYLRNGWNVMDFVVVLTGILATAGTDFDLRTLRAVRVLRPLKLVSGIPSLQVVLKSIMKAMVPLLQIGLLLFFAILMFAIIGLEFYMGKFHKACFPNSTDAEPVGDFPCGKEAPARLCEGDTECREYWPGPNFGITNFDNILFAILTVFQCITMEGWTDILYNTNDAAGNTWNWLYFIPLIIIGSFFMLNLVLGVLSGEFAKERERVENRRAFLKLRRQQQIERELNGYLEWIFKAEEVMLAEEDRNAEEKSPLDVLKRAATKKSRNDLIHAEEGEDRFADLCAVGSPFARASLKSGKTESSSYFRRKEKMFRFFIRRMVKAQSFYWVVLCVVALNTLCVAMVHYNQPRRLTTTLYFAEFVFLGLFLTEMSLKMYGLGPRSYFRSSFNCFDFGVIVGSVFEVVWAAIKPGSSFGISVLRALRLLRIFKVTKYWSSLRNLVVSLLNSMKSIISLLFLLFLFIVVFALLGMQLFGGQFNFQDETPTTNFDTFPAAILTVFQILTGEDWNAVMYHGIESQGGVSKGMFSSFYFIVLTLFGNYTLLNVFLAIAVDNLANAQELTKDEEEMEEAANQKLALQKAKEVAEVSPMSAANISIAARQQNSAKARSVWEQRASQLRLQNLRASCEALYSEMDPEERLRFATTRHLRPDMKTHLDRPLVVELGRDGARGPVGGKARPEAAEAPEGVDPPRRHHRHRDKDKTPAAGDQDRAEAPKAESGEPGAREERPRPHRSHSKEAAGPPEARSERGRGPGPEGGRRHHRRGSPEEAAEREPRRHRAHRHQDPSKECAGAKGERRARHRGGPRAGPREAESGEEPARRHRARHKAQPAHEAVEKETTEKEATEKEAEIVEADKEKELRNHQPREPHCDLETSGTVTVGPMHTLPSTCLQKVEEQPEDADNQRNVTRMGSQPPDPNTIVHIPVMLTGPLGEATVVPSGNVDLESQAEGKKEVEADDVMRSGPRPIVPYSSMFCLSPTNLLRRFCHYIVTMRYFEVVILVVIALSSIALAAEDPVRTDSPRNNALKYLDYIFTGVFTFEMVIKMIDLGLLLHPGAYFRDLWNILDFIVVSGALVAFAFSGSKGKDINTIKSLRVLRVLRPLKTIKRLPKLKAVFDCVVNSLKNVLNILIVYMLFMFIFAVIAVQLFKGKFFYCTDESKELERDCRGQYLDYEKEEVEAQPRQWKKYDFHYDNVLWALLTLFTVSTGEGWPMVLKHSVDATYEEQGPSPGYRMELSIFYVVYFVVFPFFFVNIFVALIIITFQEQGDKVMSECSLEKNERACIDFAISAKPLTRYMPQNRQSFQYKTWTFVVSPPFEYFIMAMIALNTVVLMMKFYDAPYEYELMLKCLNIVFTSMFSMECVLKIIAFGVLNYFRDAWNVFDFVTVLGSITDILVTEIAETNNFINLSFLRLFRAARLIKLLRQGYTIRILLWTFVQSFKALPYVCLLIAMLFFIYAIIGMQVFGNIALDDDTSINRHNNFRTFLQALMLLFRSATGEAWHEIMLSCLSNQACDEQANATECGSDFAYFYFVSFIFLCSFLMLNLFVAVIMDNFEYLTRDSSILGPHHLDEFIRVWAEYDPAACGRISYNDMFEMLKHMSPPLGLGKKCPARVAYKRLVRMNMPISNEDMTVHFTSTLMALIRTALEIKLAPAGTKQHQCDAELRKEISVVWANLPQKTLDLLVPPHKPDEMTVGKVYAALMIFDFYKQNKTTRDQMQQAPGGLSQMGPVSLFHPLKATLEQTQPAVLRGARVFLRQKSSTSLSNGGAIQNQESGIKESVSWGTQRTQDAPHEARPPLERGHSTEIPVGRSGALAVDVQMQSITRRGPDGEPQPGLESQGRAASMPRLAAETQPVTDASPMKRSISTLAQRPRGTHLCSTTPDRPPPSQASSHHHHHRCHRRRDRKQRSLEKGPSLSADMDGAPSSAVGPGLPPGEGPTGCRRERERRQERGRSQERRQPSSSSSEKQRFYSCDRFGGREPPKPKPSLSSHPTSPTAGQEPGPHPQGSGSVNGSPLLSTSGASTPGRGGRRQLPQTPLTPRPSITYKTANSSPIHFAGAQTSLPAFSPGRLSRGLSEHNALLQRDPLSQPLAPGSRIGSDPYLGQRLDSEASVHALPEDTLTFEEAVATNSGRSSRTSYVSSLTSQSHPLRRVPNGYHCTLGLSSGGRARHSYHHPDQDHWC
T1 sequence (P54289 25-956 partner limits assumed): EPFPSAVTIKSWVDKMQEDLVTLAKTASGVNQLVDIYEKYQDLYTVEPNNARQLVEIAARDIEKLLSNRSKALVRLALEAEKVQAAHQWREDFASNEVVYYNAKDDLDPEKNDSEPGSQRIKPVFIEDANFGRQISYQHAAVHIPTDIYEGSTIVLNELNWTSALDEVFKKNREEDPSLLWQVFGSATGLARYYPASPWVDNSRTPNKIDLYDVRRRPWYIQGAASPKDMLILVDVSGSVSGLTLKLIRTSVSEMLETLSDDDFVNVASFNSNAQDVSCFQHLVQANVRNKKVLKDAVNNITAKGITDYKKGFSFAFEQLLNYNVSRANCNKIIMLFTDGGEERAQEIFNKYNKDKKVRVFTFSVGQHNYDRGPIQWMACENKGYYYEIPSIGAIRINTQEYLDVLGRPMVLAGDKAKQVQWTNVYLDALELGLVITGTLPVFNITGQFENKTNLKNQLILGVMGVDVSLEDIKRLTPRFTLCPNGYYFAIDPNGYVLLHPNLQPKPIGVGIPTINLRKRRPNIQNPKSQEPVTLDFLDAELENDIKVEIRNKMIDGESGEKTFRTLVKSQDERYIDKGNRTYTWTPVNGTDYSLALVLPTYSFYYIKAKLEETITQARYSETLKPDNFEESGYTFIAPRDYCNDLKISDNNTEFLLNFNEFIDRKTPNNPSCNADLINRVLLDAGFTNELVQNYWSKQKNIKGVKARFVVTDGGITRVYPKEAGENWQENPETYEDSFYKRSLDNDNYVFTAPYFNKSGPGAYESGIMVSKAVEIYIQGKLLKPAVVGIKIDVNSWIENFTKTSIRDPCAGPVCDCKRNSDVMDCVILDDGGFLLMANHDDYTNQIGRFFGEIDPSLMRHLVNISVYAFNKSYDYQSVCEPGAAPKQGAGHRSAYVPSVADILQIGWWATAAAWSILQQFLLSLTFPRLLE
T1 sequence (P54289 957-1103 partner limits assumed): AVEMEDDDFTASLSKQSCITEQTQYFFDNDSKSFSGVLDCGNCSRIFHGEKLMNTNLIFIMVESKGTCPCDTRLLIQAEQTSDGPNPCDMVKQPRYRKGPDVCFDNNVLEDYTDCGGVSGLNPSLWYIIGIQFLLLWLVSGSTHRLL
T1 sequence (P54284 whole entry partner): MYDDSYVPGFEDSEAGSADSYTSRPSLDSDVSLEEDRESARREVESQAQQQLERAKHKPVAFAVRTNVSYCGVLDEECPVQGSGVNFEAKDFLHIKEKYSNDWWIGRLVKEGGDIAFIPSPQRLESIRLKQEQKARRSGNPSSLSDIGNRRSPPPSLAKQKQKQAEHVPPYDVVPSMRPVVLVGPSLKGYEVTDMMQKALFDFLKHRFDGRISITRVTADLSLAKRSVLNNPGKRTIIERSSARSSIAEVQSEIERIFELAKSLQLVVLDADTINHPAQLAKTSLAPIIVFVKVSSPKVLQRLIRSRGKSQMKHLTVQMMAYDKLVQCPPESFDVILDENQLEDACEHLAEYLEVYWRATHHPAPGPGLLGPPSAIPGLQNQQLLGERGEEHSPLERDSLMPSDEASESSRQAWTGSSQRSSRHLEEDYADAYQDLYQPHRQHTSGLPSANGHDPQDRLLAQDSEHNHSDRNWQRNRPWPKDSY

Row | IC50 [1] [nM] | IC50 [2] [nM] | SMILES
1 | 100 | 3580 | CC(C)N(C1CCN(C(=O)[C@H](Cc2ccccc2)NCC2CCCCC2)CC1)S(=O)(=O)c1cccc(C(F)(F)F)c1 [Compound 88d, (S)—N-{1-[2-(Cyclohexylmethyl-amino)-3-phenyl-propionyl]-piperidin-4-yl}-N-isopropyl-3-trifluoromethyl-benzenesulfonamide]
2 | 570 | 9750 | CC(C)N(C1CCN(CCC(=O)Nc2ccc(F)cc2)CC1)S(=O)(=O)c1cccc(C(F)(F)F)c1 [Compound 107a, N-(4-Fluorophenyl)-3-{4-[isopropyl-(3-trifluoromethylbenzenesulfonyl)amino]-piperidin-1-yl}-propionamide]
3 | 450 | > 20000 | Cc1cccc(NC(=O)CN2CCC(N(C(C)C)S(=O)(=O)c3cccc(C(F)(F)F)c3)CC2)c1 [Compound 42d, 2-{4-[Isopropyl-(3-trifluoromethylbenzenesulfonyl)amino]-piperidin-1-yl}-N-m-tolyl-acetamide]
4 | 410 | > 20000 | CC(C)N(C1CCN(CC(=O)Nc2ccc(C(F)(F)F)cn2)CC1)S(=O)(=O)c1cccc(C(F)(F)F)c1 [Compound 42m, 2-{4-[Isopropyl-(3-trifluoromethylbenzenesulfonyl)amino]-piperidin-1-yl}-N-(5-trifluoromethylpyridin-2-yl)-acetamide]
5 | 620 | 7080 | CC(C)C[C@H](NC1CCCC1)C(=O)N1CCC(N(C(C)C)S(=O)(=O)c2cccc(C(F)(F)F)c2)CC1 [Compound 88c, (S)—N-[1-(2-Cyclopentylamino-4-methyl-pentanoyl)-piperidin-4-yl]-N-isopropyl-3-trifluoromethyl-benzenesulfonamide]

The remaining lines, values behind:

Row | SMILES | IC50 [1] [nM] | IC50 [2] [nM]
6 | O=C(CN1CCC(N(C2CC2)S(=O)(=O)c2cccc(C(F)(F)F)c2)CC1)Nc1cc(Cl)cc(Cl)c1 [Compound 79, 2-{4-[Cyclopropyl-(3-trifluoromethylbenzenesulfonyl)amino]-piperidin-1-yl}-N-(3,5-dichlorophenyl)-acetamide] | 860 | > 20000
7 | CC(C)N(C1CCN(C(=O)CCNc2ccccc2F)CC1)S(=O)(=O)c1cccc(C(F)(F)F)c1 [N-{1-[3-(2-fluoro-phenylamino)-propionyl]-piperidin-4-yl}-N-isopropyl-3-trifluoromethyl-benzenesulfonamide] | 550 | 9650
8 | CC(C)N(C1CCN(C(=O)CNCc2ccccc2)CC1)S(=O)(=O)c1cccc(C(F)(F)F)c1 [Compound 93, N-[1-(2-Benzylaminoacetyl)-piperidin-4-yl]-N-isopropyl-3-trifluoromethylbenzenesulfonamide] | 560 | 10000 to 20000
9 | O=C(Nc1ccc(F)cc1)C(=O)N1CCC(N(C2CC2)S(=O)(=O)c2cccc(C(F)(F)F)c2)CC1 [Compound 22, 2-{4-[Cyclopropyl-(3-trifluoromethylbenzenesulfonyl)amino]-piperidin-1-yl}-N-(4-fluorophenyl)-2-oxo-acetamide] | 700 | > 20000
10 | CC(C)N(C1CCN(CC(=O)Nc2ccc(F)cc2)CC1)S(=O)(=O)c1cccc(C(F)(F)F)c1 [Compound 44, N-(4-Fluorophenyl)-2-{4-[isopropyl-(3-trifluoromethylbenzenesulfonyl)amino]-piperidin-1-yl}-acetamide] | 280 | 2680
